Experimental data reported in ChEMBL document CHEMBL1275354, “Anticonvulsant activity of 2,4(1H)-diarylimidazoles in mice and rats acute seizure models” (Bioorg Med Chem, 2010).
Active and inactive are the calls of the source. The rule behind the calls is not given here.

Legend:
[1] = test system: Rattus norvegicus; assay: Neurotoxicity in albino Sprague-Dawley rat assessed as minimal motor impairment at 30 mg/kg, po by rotarod test; type: toxicity, organism-based; parameters: dose 30 mg/kg, route oral; conditions: in vivo
[2] = test system: Rattus norvegicus; assay: Anticonvulsant activity in albino Sprague-Dawley rat assessed as protection against maximal electroshock-induced seizures at 30 mg/kg, po after 2 hrs; type: functional, organism-based; parameters: dose 30 mg/kg
[3] = test system: Mus musculus; assay: Anticonvulsant activity in albino CF1 mouse assessed as protection against maximal electroshock-induced seizures at 30 mg/kg, ip after 4 hrs; type: functional, organism-based; parameters: dose 30 mg/kg
[4] = test system: Mus musculus; assay: Anticonvulsant activity in albino CF1 mouse assessed as protection against subcutaneous metrazole-induced seizures at 30 mg/kg, ip after 0.5 hrs; type: functional, organism-based; parameters: dose 30 mg/kg
[5] = test system: Mus musculus; assay: Anticonvulsant activity in albino CF1 mouse assessed as protection against subcutaneous metrazole-induced seizures at 300 mg/kg, ip after 1 hr; type: functional, organism-based; parameters: dose 300 mg/kg
[6] = test system: Mus musculus; assay: Anticonvulsant activity in albino CF1 mouse assessed as protection against subcutaneous metrazole-induced seizures at 75 mg/kg, ip after 1 hr; type: functional, organism-based; parameters: dose 75 mg/kg
[7] = test system: Mus musculus; assay: Anticonvulsant activity ip dosed albino CF1 mouse assessed as protection against maximal electroshock-induced seizures after 1 hr; type: functional
[8] = test system: Mus musculus; assay: Anticonvulsant activity in albino CF1 mouse assessed as protection against maximal electroshock-induced seizures at 30 mg/kg, ip after 0.5 hrs; type: functional, organism-based; parameters: dose 30 mg/kg
[9] = test system: Mus musculus; assay: Anticonvulsant activity against subcutaneous metrazole-induced seizures in ip dosed albino CF1 mouse assessed as minimum effective dose after 4 hrs; type: functional; conditions: albino CF1, 4 h, read-out: MED
[10] = target: Sodium channel protein type 2 subunit alpha (Homo sapiens, UniProt Q99250); assay: Inhibition of human NaV1.2 expressed in HEK cells at -60 mV holding potential by patch clamp recording technique; type: cell-based, HEK293
[11] = test system: Mus musculus; assay: Anticonvulsant activity in albino CF1 mouse assessed as protection against subcutaneous metrazole-induced seizures at 300 mg/kg, ip after 0.5 hrs; type: functional, organism-based; parameters: dose 300 mg/kg
[12] = test system: Mus musculus; assay: Anticonvulsant activity in albino CF1 mouse assessed as protection against subcutaneous metrazole-induced seizures at 30 mg/kg, ip after 4 hrs; type: functional, organism-based; parameters: dose 30 mg/kg
[13] = test system: Mus musculus; assay: Neurotoxicity in albino CF1 mouse assessed as minimal motor impairment at 30 mg/kg, ip after 4 hrs by rotarod test; type: toxicity, organism-based; parameters: dose 30 mg/kg, route intraperitoneal; conditions: in vivo
[14] = test system: Mus musculus; assay: Anticonvulsant activity against maximal electroshock-induced seizures in ip dosed albino CF1 mouse assessed as minimum effective dose after 4 hrs; type: functional; conditions: read-out: MED
[15] = test system: Mus musculus; assay: Anticonvulsant activity in albino CF1 mouse assessed as protection against subcutaneous metrazole-induced seizures at 100 mg/kg, ip after 0.5 hrs; type: functional, organism-based; parameters: dose 100 mg/kg
[16] = test system: Rattus norvegicus; assay: Anticonvulsant activity in albino Sprague-Dawley rat assessed as protection against maximal electroshock-induced seizures at 30 mg/kg, po after 1 hr; type: functional, organism-based; parameters: dose 30 mg/kg
[17] = test system: Mus musculus; assay: Neurotoxicity in albino CF1 mouse assessed as minimal motor impairment at 100 mg/kg, ip after 0.5 hrs by rotarod test; type: toxicity, organism-based; parameters: dose 100 mg/kg, route intraperitoneal; conditions: in vivo
[18] = test system: Mus musculus; assay: Anticonvulsant activity against maximal electroshock-induced seizures in ip dosed albino CF1 mouse assessed as minimum effective dose after 0.5 hrs; type: functional; conditions: read-out: MED
[19] = Neurotoxicity in ip dosed albino CF1 mouse assessed as minimal motor impairment after 1 hr by rotarod test; type: toxicity, organism-based; conditions: in vivo
[20] = species on record: Mus musculus; assay: Protective index, ratio of TD50 for albino CF1 mouse after 1 hr by rotarod test to ED50 for albino CF1 mouse by maximal electroshock seizures test after 1 hr; type: functional
[21] = test system: Mus musculus; assay: Neurotoxicity in albino CF1 mouse assessed as minimal motor impairment at 100 mg/kg, ip after 1 hr by rotarod test; type: toxicity, organism-based; parameters: dose 100 mg/kg, route intraperitoneal; conditions: in vivo
[22] = test system: Mus musculus; assay: Neurotoxicity in albino CF1 mouse assessed as minimal motor impairment at 100 mg/kg, ip after 0.25 hrs by rotarod test; type: toxicity, organism-based; parameters: dose 100 mg/kg, route intraperitoneal; conditions: in vivo
[23] = test system: Mus musculus; assay: Neurotoxicity in albino CF1 mouse assessed as minimal motor impairment at 100 mg/kg, ip after 2 hrs by rotarod test; type: toxicity, organism-based; parameters: dose 100 mg/kg, route intraperitoneal; conditions: in vivo
[24] = test system: Mus musculus; assay: Neurotoxicity in albino CF1 mouse assessed as minimal motor impairment at 140 mg/kg, ip after 1 hr by rotarod test; type: toxicity, organism-based; parameters: dose 140 mg/kg, route intraperitoneal; conditions: in vivo
[25] = test system: Mus musculus; assay: Anticonvulsant activity in albino CF1 mouse assessed as protection against maximal electroshock-induced seizures at 60 mg/kg, ip after 1 hr; type: functional, organism-based; parameters: dose 60 mg/kg
[26] = test system: Mus musculus; assay: Anticonvulsant activity in albino CF1 mouse assessed as protection against maximal electroshock-induced seizures at 100 mg/kg, ip after 0.5 hrs; type: functional, organism-based; parameters: dose 100 mg/kg
[27] = test system: Mus musculus; assay: Neurotoxicity in albino CF1 mouse assessed as minimal motor impairment at 30 to 300 mg/kg, ip after 0.5 hrs by rotarod test; conditions: in vivo
[28] = test system: Mus musculus; assay: Anticonvulsant activity in albino CF1 mouse assessed as protection against subcutaneous metrazole-induced seizures at 150 mg/kg, ip after 1 hr; type: functional, organism-based; parameters: dose 150 mg/kg
[29] = test system: Mus musculus; assay: Anticonvulsant activity in albino CF1 mouse assessed as protection against maximal electroshock-induced seizures at 300 mg/kg, ip after 4 hrs; type: functional, organism-based; parameters: dose 300 mg/kg
[30] = test system: Mus musculus; assay: Neurotoxicity in albino CF1 mouse assessed as minimal motor impairment at 300 mg/kg, ip after 0.5 hrs by rotarod test; type: toxicity, organism-based; parameters: dose 300 mg/kg, route intraperitoneal; conditions: in vivo
[31] = test system: Mus musculus; assay: Anticonvulsant activity ip dosed albino CF1 mouse assessed as protection against maximal electroshock-induced seizures after 0.25 hrs; type: functional
[32] = test system: Rattus norvegicus; assay: Anticonvulsant activity in albino Sprague-Dawley rat assessed as protection against maximal electroshock-induced seizures at 30 mg/kg, po after 0.5 hrs; type: functional, organism-based; parameters: dose 30 mg/kg
[33] = test system: Mus musculus; assay: Anticonvulsant activity in albino CF1 mouse assessed as protection against maximal electroshock-induced seizures at 300 mg/kg, ip after 0.5 hrs; type: functional, organism-based; parameters: dose 300 mg/kg
[34] = test system: Mus musculus; assay: Neurotoxicity in albino CF1 mouse assessed as minimal motor impairment at 30 to 300 mg/kg, po after 4 hrs by rotarod test; type: toxicity, organism-based; parameters: dose 30-300 mg/kg, route oral; conditions: in vivo
[35] = test system: Mus musculus; assay: Anticonvulsant activity in albino CF1 mouse assessed as protection against subcutaneous metrazole-induced seizures at 100 mg/kg, ip after 4 hrs; type: functional, organism-based; parameters: dose 100 mg/kg
[36] = test system: Mus musculus; assay: Neurotoxicity in albino CF1 mouse assessed as minimal motor impairment at 30 mg/kg, ip after 0.5 hrs by rotarod test; type: toxicity, organism-based; parameters: dose 30 mg/kg, route intraperitoneal; conditions: in vivo
[37] = test system: Mus musculus; assay: Neurotoxicity in ip dosed albino CF1 mouse assessed as minimum dose required to cause toxicity after 0.5 hrs by rotarod test; type: organism-based; conditions: in vivo
[38] = species on record: Mus musculus; assay: Protective index, ratio of TD50 for albino CF1 mouse by rotarod test to ED50 for albino CF1 mouse by maximal electroshock seizures test; type: functional
[39] = test system: Rattus norvegicus; assay: Anticonvulsant activity in albino Sprague-Dawley rat assessed as protection against maximal electroshock-induced seizures at 30 mg/kg, po after 4 hrs; type: functional, organism-based; parameters: dose 30 mg/kg
[40] = test system: Rattus norvegicus; assay: Anticonvulsant activity in albino Sprague-Dawley rat assessed as protection against maximal electroshock-induced seizures at 30 mg/kg, po after 0.25 hrs; type: functional, organism-based; parameters: dose 30 mg/kg
[41] = test system: Mus musculus; assay: Anticonvulsant activity in albino CF1 mouse assessed as protection against subcutaneous metrazole-induced seizures at 300 mg/kg, ip after 4 hrs; type: functional, organism-based; parameters: dose 300 mg/kg
[42] = test system: Mus musculus; assay: Anticonvulsant activity in albino CF1 mouse assessed as protection against maximal electroshock-induced seizures at 100 mg/kg, ip after 2 hrs; type: functional, organism-based; parameters: dose 100 mg/kg
[43] = test system: Mus musculus; assay: Neurotoxicity in albino CF1 mouse assessed as minimal motor impairment at 300 mg/kg, ip after 4 hrs by rotarod test; type: toxicity, organism-based; parameters: dose 300 mg/kg, route intraperitoneal; conditions: in vivo
[44] = test system: Mus musculus; assay: Neurotoxicity in albino CF1 mouse assessed as minimal motor impairment at 100 mg/kg, ip after 4 hrs by rotarod test; type: toxicity, organism-based; parameters: dose 100 mg/kg, route intraperitoneal; conditions: in vivo
[45] = test system: Mus musculus; assay: Neurotoxicity in ip dosed albino CF1 mouse assessed as minimum dose required to cause toxicity after 4 hrs by rotarod test; type: organism-based; conditions: in vivo
[46] = test system: Mus musculus; assay: Anticonvulsant activity in albino CF1 mouse assessed as protection against maximal electroshock-induced seizures at 100 mg/kg, ip after 4 hrs; type: functional, organism-based; parameters: dose 100 mg/kg

Sodium channel protein type 2 subunit alpha, sequence (Q99250 whole entry): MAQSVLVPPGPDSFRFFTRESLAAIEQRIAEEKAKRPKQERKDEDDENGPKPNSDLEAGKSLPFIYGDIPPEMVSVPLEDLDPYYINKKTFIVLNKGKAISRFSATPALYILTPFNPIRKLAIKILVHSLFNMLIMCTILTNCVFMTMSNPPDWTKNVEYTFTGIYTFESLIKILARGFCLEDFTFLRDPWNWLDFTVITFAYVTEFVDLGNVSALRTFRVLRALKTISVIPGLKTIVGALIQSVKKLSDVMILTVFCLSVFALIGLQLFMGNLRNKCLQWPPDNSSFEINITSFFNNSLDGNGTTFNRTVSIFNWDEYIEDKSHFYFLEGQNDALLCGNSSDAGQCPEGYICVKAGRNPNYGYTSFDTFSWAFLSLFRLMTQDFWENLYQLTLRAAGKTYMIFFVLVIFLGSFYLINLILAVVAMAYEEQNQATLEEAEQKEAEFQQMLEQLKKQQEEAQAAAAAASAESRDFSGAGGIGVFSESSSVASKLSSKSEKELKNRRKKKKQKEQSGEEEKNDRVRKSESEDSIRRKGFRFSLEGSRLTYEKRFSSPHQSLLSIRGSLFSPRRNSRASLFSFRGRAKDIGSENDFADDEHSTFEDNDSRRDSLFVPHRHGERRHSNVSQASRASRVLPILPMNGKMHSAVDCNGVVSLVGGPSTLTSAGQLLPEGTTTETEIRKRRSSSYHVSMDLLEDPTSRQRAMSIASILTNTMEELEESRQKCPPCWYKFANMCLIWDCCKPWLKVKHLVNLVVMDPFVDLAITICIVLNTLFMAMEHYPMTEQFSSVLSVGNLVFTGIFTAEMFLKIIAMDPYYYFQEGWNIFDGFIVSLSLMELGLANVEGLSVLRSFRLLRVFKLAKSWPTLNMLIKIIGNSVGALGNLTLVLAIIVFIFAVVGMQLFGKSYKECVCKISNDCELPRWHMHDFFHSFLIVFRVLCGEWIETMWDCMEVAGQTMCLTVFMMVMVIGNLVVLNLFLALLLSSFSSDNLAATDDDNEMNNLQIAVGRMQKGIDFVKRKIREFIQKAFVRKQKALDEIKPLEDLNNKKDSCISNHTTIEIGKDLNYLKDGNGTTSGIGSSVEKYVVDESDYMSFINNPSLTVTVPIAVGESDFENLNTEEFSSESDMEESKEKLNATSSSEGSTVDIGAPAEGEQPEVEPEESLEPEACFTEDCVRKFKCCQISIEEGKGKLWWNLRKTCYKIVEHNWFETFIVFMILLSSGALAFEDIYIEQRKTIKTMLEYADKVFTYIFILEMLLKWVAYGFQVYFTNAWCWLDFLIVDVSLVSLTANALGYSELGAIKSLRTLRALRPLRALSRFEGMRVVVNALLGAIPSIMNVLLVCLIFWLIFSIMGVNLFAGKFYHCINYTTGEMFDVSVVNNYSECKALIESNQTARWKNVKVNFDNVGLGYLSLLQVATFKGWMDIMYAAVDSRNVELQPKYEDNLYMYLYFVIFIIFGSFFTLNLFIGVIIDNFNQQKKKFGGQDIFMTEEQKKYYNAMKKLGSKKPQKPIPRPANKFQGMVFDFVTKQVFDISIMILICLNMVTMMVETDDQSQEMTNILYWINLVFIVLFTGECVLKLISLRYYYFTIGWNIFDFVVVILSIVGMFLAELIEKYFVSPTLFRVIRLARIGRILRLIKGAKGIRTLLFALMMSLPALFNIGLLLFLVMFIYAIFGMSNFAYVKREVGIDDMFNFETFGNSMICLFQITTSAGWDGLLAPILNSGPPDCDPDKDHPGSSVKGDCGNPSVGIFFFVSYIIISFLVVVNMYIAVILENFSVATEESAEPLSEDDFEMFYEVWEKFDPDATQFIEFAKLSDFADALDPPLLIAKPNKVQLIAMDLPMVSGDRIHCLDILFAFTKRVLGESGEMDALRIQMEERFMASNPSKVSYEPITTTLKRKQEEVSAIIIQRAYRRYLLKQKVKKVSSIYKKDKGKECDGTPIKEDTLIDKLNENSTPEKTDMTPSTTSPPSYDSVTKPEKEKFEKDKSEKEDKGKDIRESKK

For `FC(F)(F)c1ccc(-c2nc(-c3ccccc3)c[nH]2)cc1`, the Activity [1] was “Non-toxic”, the Activity [2] was “inactive” and the Activity [3] was “inactive”. For the same compound, the Activity [4] was “inactive”, the Activity [5] was “inactive” and the Activity [6] was “inactive”. For the same compound, the ED50 [7] was 130 mg/kg, the Activity [8] was “inactive” and the minimal effective dose [9] was > 300 mg/kg. The IC50 [10] was 10.1 µM, the Activity [11] was “inactive” and the Activity [12] was “inactive”. For the same compound, the Activity [13] was “Non-toxic”, the minimal effective dose [14] was 100 mg/kg and the Activity [15] was “inactive”. For the same compound, the Activity [16] was “inactive”, the Activity [17] was “Non-toxic” and the minimal effective dose [18] was 100 mg/kg. The TD50 at 1 h [19] was > 500 mg/kg, the PI [20] was > 3.8 and the Activity [21] was “Non-toxic”. The Activity [22] was “Non-toxic”, the Activity [23] was “Non-toxic” and the Activity [24] was “Non-toxic”. The Activity [25] was “inactive”, the Activity [26] was “inactive” and the Activity [27] was “Non-toxic”. The Activity [28] was “inactive”, the Activity [29] was “Active” and the Activity [30] was “Non-toxic”. The ED50 [31] was 130 mg/kg, the Activity [32] was “inactive” and the Activity [33] was “Active”. For the same compound, the Activity [34] was “Non-toxic”, the Activity [35] was “inactive” and the Activity [36] was “Non-toxic”. For the same compound, the MED [37] was > 300 mg/kg, the PI [38] was >3.8 and the Activity [39] was “inactive”. The Activity [40] was “inactive”, the Activity [41] was “inactive” and the Activity [42] was “inactive”. For the same compound, the Activity [43] was “Non-toxic”, the Activity [44] was “Non-toxic” and the MED [45] was > 300 mg/kg. The Activity [46] was “inactive”.
